± gives the standard deviation of the averaged measurements.
compound: CN1CC[C@H](c2c(O)cc(O)c3c(=O)cc(-c4ccccc4Cl)oc23)[C@H](O)C1 [FLAVOPIRIDOL]; assay: surviving fraction relative to DMSO-only wells; higher = less growth inhibition; conditions: 0.5 nM; exposure time: 5 days
Outline: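 Tumour cell lines were grown to log phase and seeded at 250–500 cells per well in 384-well plates. They were exposed continuously to inhibitors at 0.5, 1, 5, 10, 50, 100, 500 and 1000 nM for five days, beginning 24 hours after seeding. Surviving fraction is CellTiter-Glo luminescence normalised to the median of DMSO-only wells.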

In order of falling surviving fraction:
1. ZR751 BREAST  1.28 ± 0.14
2. SAOS2 BONE  1.23 ± 0.13
3. NCIH441 LUNG  1.18 ± 0.06
4. BT549 BREAST  1.17 ± 0.052
5. HCC1954 BREAST  1.16 ± 0.0025
6. SG27 HEADNECK  1.16 ± 0.11
7. SKBR3 BREAST  1.15 ± 0.074
8. CME SYNOVIAL  1.13 ± 0.18
9. VP229 BREAST  1.13 ± 0.17
10. 143B BONE  1.12 ± 0.14
11. YAMATO SYNOVIAL  1.12 ± 0.068
12. SUM149.B1*.S BREAST  1.1 ± 0.047
13. COLO320DM LARGE INTESTINE  1.1 ± 0.11
14. CAL72 BONE  1.09 ± 0.1
15. SUM159 BREAST  1.08 ± 0.024
16. SIHA CERVIX  1.07 ± 0.041
17. SCC90 HEADNECK  1.07 ± 0.099
18. LM7 BONE  1.06 ± 0.022
19. HCT15 LARGE INTESTINE  1.06 ± 0.085
20. MG63 BONE  1.06 ± 0.022
21. VCAP PROSTATE  1.05 ± 0.085
22. DU4475 BREAST  1.05 ± 0.1
23. 93VU HEADNECK  1.04 ± 0.088
24. MDAMB453 BREAST  1.039 ± 0.0056
25. A549 LUNG  1.04 ± 0.011
26. H23 LUNG  1.03 ± 0.034
27. MDAMB468 BREAST  1.03 ± 0.031
28. ASKA SYNOVIAL  1.02 ± 0.087
29. MHM BONE  1.02 ± 0.036
30. SYO1 SYNOVIAL  1.02 ± 0.044
31. HCC1395 BREAST  1 ± 0.21
32. MDAMB134 BREAST  1 ± 0.019
33. C33A CERVIX  0.991 ± 0.084
34. HCC202 BREAST  0.988 ± 0.55
35. HELA CERVIX  0.987 ± 0.041
36. T47D BREAST  0.974 ± 0.18
37. SUM149 BREAST  0.955 ± 0.031
38. MDAMB361 BREAST  0.919 ± 0.18
39. KPD BONE  0.881 ± 0.31

same assay, conditions: 1 nM; exposure time: 5 days

In order of rising surviving fraction:
1. MDAMB361 BREAST  0.814 ± 0.066
2. HELA CERVIX  0.962 ± 0.045
3. HCT15 LARGE INTESTINE  0.963 ± 0.12
4. MDAMB468 BREAST  0.967 ± 0.064
5. MDAMB134 BREAST  0.991 ± 0.041
6. SYO1 SYNOVIAL  1 ± 0.064
7. KPD BONE  1.01 ± 0.074
8. ASKA SYNOVIAL  1.02 ± 0.066
9. VCAP PROSTATE  1.02 ± 0.079
10. 93VU HEADNECK  1.03 ± 0.012
11. MDAMB453 BREAST  1.03 ± 0.071
12. SG27 HEADNECK  1.04 ± 0.04
13. MHM BONE  1.04 ± 0.035
14. SIHA CERVIX  1.05 ± 0.067
15. H23 LUNG  1.05 ± 0.027
16. A549 LUNG  1.05 ± 0.015
17. CAL72 BONE  1.06 ± 0.021
18. MG63 BONE  1.06 ± 0.023
19. SUM149 BREAST  1.07 ± 0.051
20. T47D BREAST  1.07 ± 0.022
21. LM7 BONE  1.08 ± 0.096
22. SUM159 BREAST  1.08 ± 0.021
23. YAMATO SYNOVIAL  1.08 ± 0.053
24. DU4475 BREAST  1.08 ± 0.12
25. SCC90 HEADNECK  1.08 ± 0.072
26. SUM149.B1*.S BREAST  1.09 ± 0.024
27. SKBR3 BREAST  1.0877 ± 0.00058
28. COLO320DM LARGE INTESTINE  1.09 ± 0.086
29. C33A CERVIX  1.1 ± 0.041
30. 143B BONE  1.11 ± 0.086
31. VP229 BREAST  1.11 ± 0.062
32. HCC1954 BREAST  1.12 ± 0.063
33. NCIH441 LUNG  1.12 ± 0.026
34. HCC1395 BREAST  1.13 ± 0.062
35. BT549 BREAST  1.13 ± 0.094
36. HCC202 BREAST  1.17 ± 0.34
37. SAOS2 BONE  1.18 ± 0.06
38. CME SYNOVIAL  1.22 ± 0.07
39. ZR751 BREAST  1.25 ± 0.051

same assay, conditions: 5 nM; exposure time: 5 days

In order of falling surviving fraction:
1. HCC1954 BREAST  1.49 ± 0.18
2. VCAP PROSTATE  1.42 ± 0.065
3. SAOS2 BONE  1.26 ± 0.039
4. YAMATO SYNOVIAL  1.25 ± 0.061
5. CME SYNOVIAL  1.23 ± 0.081
6. ZR751 BREAST  1.21 ± 0.037
7. HCC1395 BREAST  1.2 ± 0.097
8. 93VU HEADNECK  1.19 ± 0.066
9. MG63 BONE  1.165 ± 0.0064
10. VP229 BREAST  1.16 ± 0.073
11. LM7 BONE  1.15 ± 0.11
12. H23 LUNG  1.15 ± 0.073
13. HCC202 BREAST  1.13 ± 0.22
14. C33A CERVIX  1.12 ± 0.067
15. SCC90 HEADNECK  1.12 ± 0.085
16. 143B BONE  1.11 ± 0.048
17. ASKA SYNOVIAL  1.11 ± 0.054
18. BT549 BREAST  1.11 ± 0.07
19. SIHA CERVIX  1.1 ± 0.081
20. MDAMB453 BREAST  1.1 ± 0.083
21. SUM159 BREAST  1.09 ± 0.014
22. MDAMB134 BREAST  1.09 ± 0.037
23. NCIH441 LUNG  1.09 ± 0.042
24. SUM149.B1*.S BREAST  1.08 ± 0.063
25. KPD BONE  1.08 ± 0.048
26. COLO320DM LARGE INTESTINE  1.08 ± 0.14
27. SUM149 BREAST  1.06 ± 0.033
28. MHM BONE  1.06 ± 0.024
29. A549 LUNG  1.06 ± 0.013
30. CAL72 BONE  1.05 ± 0.049
31. SKBR3 BREAST  1.05 ± 0.022
32. HELA CERVIX  1.03 ± 0.086
33. MDAMB468 BREAST  1.03 ± 0.045
34. T47D BREAST  1.01 ± 0.2
35. HCT15 LARGE INTESTINE  0.991 ± 0.13
36. SG27 HEADNECK  0.987 ± 0.12
37. SYO1 SYNOVIAL  0.972 ± 0.073
38. MDAMB361 BREAST  0.841 ± 0.05
39. DU4475 BREAST  0.83 ± 0.07

same assay, conditions: 10 nM; exposure time: 5 days

In order of rising surviving fraction:
1. MDAMB361 BREAST  0.861 ± 0.13
2. SYO1 SYNOVIAL  0.881 ± 0.05
3. DU4475 BREAST  0.914 ± 0.16
4. HCT15 LARGE INTESTINE  0.92 ± 0.12
5. HELA CERVIX  0.936 ± 0.018
6. VP229 BREAST  0.957 ± 0.12
7. CAL72 BONE  0.982 ± 0.04
8. MDAMB468 BREAST  0.991 ± 0.04
9. BT549 BREAST  0.994 ± 0.021
10. KPD BONE  0.997 ± 0.03
11. COLO320DM LARGE INTESTINE  1.01 ± 0.12
12. MDAMB453 BREAST  1.01 ± 0.02
13. SG27 HEADNECK  1.02 ± 0.3
14. SIHA CERVIX  1.03 ± 0.032
15. SUM149.B1*.S BREAST  1.044 ± 0.0039
16. SUM159 BREAST  1.049 ± 0.0055
17. A549 LUNG  1.05 ± 0.018
18. SUM149 BREAST  1.06 ± 0.087
19. HCC202 BREAST  1.06 ± 0.31
20. SKBR3 BREAST  1.06 ± 0.092
21. SCC90 HEADNECK  1.07 ± 0.12
22. NCIH441 LUNG  1.08 ± 0.11
23. LM7 BONE  1.1 ± 0.091
24. 143B BONE  1.11 ± 0.095
25. ASKA SYNOVIAL  1.11 ± 0.036
26. YAMATO SYNOVIAL  1.11 ± 0.11
27. MHM BONE  1.11 ± 0.025
28. T47D BREAST  1.11 ± 0.039
29. 93VU HEADNECK  1.12 ± 0.11
30. HCC1954 BREAST  1.12 ± 0.23
31. MDAMB134 BREAST  1.13 ± 0.088
32. SAOS2 BONE  1.14 ± 0.04
33. H23 LUNG  1.18 ± 0.079
34. MG63 BONE  1.19 ± 0.033
35. CME SYNOVIAL  1.2 ± 0.07
36. ZR751 BREAST  1.25 ± 0.033
37. HCC1395 BREAST  1.311 ± 0.006
38. C33A CERVIX  1.31 ± 0.13
39. VCAP PROSTATE  1.52 ± 0.076

Reference: the supplement of paper PMC6045584
